Literature values, collected in patent US9046534B2, “Methods and systems for identifying and treating anti-progestin sensitive tumors” (INVIVIS PHARMACEUTICALS INC., priority 2011, dated 2015).

Legend:
[1] = tested on: progesterone responsive genes; settings: compared with progestins and other anti-progestins, which activate progesterone responsive genes
breast cancer = settings: first line hormone treatment, small breast cancer study
PR = molecular target: T1, PR (Homo sapiens, UniProt P06401); settings: in vitro systems; aggregates produced by an artificial ligand bound to the PR
T1 sequence (P06401 1-933): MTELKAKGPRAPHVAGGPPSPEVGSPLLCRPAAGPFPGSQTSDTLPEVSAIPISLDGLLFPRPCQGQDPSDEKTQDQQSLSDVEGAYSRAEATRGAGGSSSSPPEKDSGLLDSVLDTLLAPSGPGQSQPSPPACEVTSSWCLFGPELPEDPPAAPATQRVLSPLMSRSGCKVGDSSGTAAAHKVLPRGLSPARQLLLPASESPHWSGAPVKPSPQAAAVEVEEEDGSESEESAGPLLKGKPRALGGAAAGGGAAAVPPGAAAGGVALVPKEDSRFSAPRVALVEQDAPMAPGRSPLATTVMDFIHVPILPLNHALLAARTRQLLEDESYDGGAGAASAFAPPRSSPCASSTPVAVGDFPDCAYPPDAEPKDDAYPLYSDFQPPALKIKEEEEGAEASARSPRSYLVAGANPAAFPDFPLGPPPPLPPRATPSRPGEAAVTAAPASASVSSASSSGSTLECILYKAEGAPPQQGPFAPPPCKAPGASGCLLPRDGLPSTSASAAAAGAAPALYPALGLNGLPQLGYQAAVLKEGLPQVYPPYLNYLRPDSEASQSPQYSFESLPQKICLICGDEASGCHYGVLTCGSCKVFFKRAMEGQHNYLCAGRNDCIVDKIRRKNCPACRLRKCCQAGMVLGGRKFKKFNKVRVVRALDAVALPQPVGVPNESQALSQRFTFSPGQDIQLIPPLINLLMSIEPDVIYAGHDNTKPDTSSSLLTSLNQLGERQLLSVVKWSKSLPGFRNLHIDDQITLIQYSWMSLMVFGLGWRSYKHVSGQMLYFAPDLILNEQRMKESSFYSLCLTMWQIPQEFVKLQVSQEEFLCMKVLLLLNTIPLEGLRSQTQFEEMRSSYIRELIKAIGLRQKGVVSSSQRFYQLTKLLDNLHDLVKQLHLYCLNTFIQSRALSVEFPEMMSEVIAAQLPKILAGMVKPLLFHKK

advanced breast cancer = settings: 101 poor prognosis patients with advanced breast cancer, progressed despite prior hormonal therapy (tamoxifen)
[2] = human subjects; an increase is an undesirable side-effect for breast cancer therapy

## CN(C)c1ccc([C@H]2C[C@]3(C)[C@@H](CC[C@]3(O)CCCO)C3CCC4=CC(=O)CCC4=C32)cc1 (stereo in doubt) [Onapristone, (8S,11R,13R,14S,17S)-11-[4-(dimethylamino)phenyl]-17-hydroxy-17-(3-hydroxypropyl)-13-methyl-1,2,6,7,8,11,12,14,15,16-decahydrocyclopenta[a]phenanthren-3-one]
[1]
  activation of progesterone responsive genes (number of genes activated): 3 genes
Breast cancer
  objective response rate: 56%
PR
  effect on PR nuclear aggregates: reverse the PR nuclear aggregates
Advanced breast cancer
  response rate: 10%
[2]
  effect on estrogen secretion: does not increase estrogen secretion
